The source of these data is patent publication US20250084041A1, “ANTIMICROBIAL COMPOUNDS AND METHODS” (Curza Global, LLC, priority 2021, published 2025).

Structures are written as SMILES. Counter-ions that a name gives are not always drawn. Like-named read-outs stand apart in the source and are kept apart here.

In one assay the test system is S. aureus (Sa). The assay can be described thus: Broth microdilution MIC, S. aureus. The settings on record: Staphylococcus aureus, read-out: Sa + bicarb 25 (MIC). Type of assay: cell-based. How it is done:
(§1) A certified BSL-2 laboratory was used for testing. Compounds were evaluated using the broth microdilution minimum inhibitory concentration (MIC) and minimum bactericidal concentration (MBC) assays defined by Clinical and Laboratory Standards Institute (CLSI) in the M26-A guideline against S. aureus (Sa), E. coli (Ec), K. pneumoniae (Kp), A. baumannii (Ab), E. faecalis (Ef) and P. aeruginosa (Pa).
(§2) MICs were determined using the Clinical Laboratory and Standards Institute (CLSI) Broth Microdilution Method with slight modification. Clinical and Laboratory Standards Institute (2012). “Methods for dilution antimicrobial susceptibility tests for bacteria that grow aerobically; approved standard, 9th ed. M07-A9. Clinical and Laboratory Standards Institute, Wayne, PA.” Serial two-fold dilutions of compounds are prepared in sterile clear round-bottom 96-well plates.
(§3) To prepare microdilution trays, two-fold dilutions of antimicrobial agent are prepared in growth medium: Cation-Adjusted Mueller-Hinton Broth (CAMHB), or CAMHB supplemented with sodium bicarbonate (25 mM final concentration prepared from a 1.0 M stock solution) or CAMHB supplemented with heat inactivated human serum (Fisher Cat. #BP2657100) 0-50% by adding 200 μL of the highest concentration to be tested (64 μg/mL, for example) in row A, mixing and transferring 100 μL from row A to 100 μL growth medium in row B, then repeating the mixing and transferring through row H of the 96-well plate, discarding the excess 100 μL remaining. This slight modification to the CLSI protocol enables evaluation of MICs for 3 compounds per plate in triplicate, albeit with only 8 compound dilutions (CLSI protocol enables 2 compounds in triplicate with 10 dilutions). Bacterial suspensions are added to a final concentration of 5×10^4 CFU/well by adding 5 μL of a 1:10 dilution of a 0.5 McFarland suspension (1×10^8 CFU/mL) for each bacterium evaluated. Bacterial suspensions were prepared using the growth method described by CLSI. Well-isolated colonies (3-5 from an agar plate) were selected using a sterile loop and used to inoculate a tube containing 4 mL of CAMHB. The cultures are incubated at 35±2° C. until it achieves or exceeds the turbidity of the 0.5 McFarland standard, determined by measuring A600nm (usually two to six hours). When growth exceeds a 0.5 McFarland standard, the turbidity is adjusted with broth to be equivalent to a 0.5 McFarland standard.
(Broth dilution looks for growth in wells or tubes with falling amounts of substance.)

The next assay relates to E. coli (Ec). Nature of the assay: Broth microdilution MIC, E. coli. Type of assay: cell-based. The settings on record: Escherichia coli, read-out: E. coli + bicarb 25 (MIC). How it is done: as §1, §2, §3
In the next assay the test system is P. aeruginosa (Pa). The assay can be described thus: Broth microdilution MIC, P. aeruginosa. In kind it is cell-based. Conditions: Pseudomonas aeruginosa, read-out: Pa + bicarb 25 (MIC). How it is done: as §1, §2, §3
Another assay concerns A. baumannii (Ab). The assay can be described thus: Broth microdilution MIC, A. baumannii. In kind it is cell-based. The settings on record: Acinetobacter baumannii, read-out: Ab + bicarb 25 (MIC). As to the method:
as §1, §2, §3

For another assay, the system named is E. faecalis (Ef). The assay can be described thus: Broth microdilution MIC, E. faecalis. In kind it is cell-based. The settings on record: Enterococcus faecalis, read-out: Ef + bicarb 25 (MIC). As to the method:
as §1, §2, §3

In the next assay the test system is E. coli S30 extract. The assay can be described thus: E. coli S30 extract: inhibition of bacterial protein synthesis (luciferase). Type of assay: biochemical. Conditions: 37° C. 1 hour. How it is done:
E. coli S30 extract: Inhibition of bacterial protein synthesis was determined using the E. coli S30 Extract System for Circular DNA (Promega catalog #L-2010) and Luciferase Assay Reagent (Promega catalog #E1500) with slight modifications to a published protocol. Fyfe, C., Sutcliffe, J. A. and Grossman, T. H. (2012) “Development and characterization of a Pseudomonas aeruginosa in vitro coupled transcription-translation assay system for evaluation of translation inhibitors” J. Microbiol. Methods 90(3), 256-261.
Compounds were serial diluted in 0.5 mL microcentrifuge tubes by mixing and transferring 50 μL from the highest concentration to 50 μL of water, mixing and transferring 50 μL of this 2-fold dilution to 50 μL of water. This mixing and transferring was repeated so that there are a total of 8 tubes with serial dilutions of compound at 10× the desired screening concentration that are ultimately diluted to 1× by the addition of S30 luciferase synthesis mixture. Serial dilutions of compounds were added (2 μL) to wells in a black round bottom 96-well plate. Water (2 μL) was used as a “no inhibitor” control in 4 wells/plate. No DNA control reaction mixture (20 μL; see below) was used as a control in 4 wells/plate for background luminescence. S30 luciferase synthesis mixture (18 μL; see below) was added to wells with compounds or water mixture and incubated at 37° C. for 1 hour. Reactions were stopped by transferring to 4° C. refrigerator for 5 minutes then 25 μL of luciferase activity mix was added. Luminescence was measured using a BioTek Synergy HTX plate reader. % Inhibition was determined relative to no inhibitor controls.
• 445 μL S30 extract, circular • 712 μL S30 Premix without amino acids • 4.45 μL pBESTluc™ DNA (1 μg/μL) • 78 μL complete amino acid mixture • 267 μL water
• 20 μL S30 extract, circular • 32 μL S30 Premix without amino acids • 7 μL complete amino acid mixture • 21 μL water

The target in assay [1] is Rabbit Reticulocyte Lysate. Nature of the assay: Rabbit Reticulocyte Lysate: inhibition of eukaryotic protein synthesis (luciferase). In kind it is biochemical. The settings on record: 30° C. 90 minutes, read-out: Retic. IC50. How it is done:
Inhibition of eukaryotic protein synthesis was determined using the Rabbit Reticulocyte Lysate System, Nuclease-Treated from Promega (catalog #L-4960) with slight modifications to the manufacturer's protocol. Compounds were serial diluted in 0.5 mL microcentrifuge tubes by mixing and transferring 50 μL from the highest concentration to 50 μL of water, mixing and transferring 50 μL of this 2-fold dilution to 50 μL of water. This mixing and transferring was repeated so that there are a total of 8 tubes with serial dilutions of compound at 10× the desired screening concentration that are ultimately diluted to 1× by the addition of rabbit reticulocyte luciferase synthesis mixture. Serial dilutions of compounds were added ([…]) to wells in a black round bottom 96-well plate. Water (2.5 μL) was used as a “no inhibitor” control in 4 wells/plate. No RNA control reaction mixture ([…]; see below) was used as a control in 4 wells/plate for background luminescence. Rabbit reticulocyte luciferase synthesis mixture (22.5 μL; see below) was added to wells with compounds or water mixture and incubated at 30° C. for 90 minutes. Luciferase assay reagent (25 μL) was added with luminescence measured using a BioTek Synergy HTX plate reader. % Inhibition was determined relative to no inhibitor controls.
• 1,000 μL rabbit reticulocyte lysate • 5.7 μL Luciferase Control RNA (1 μg/μL) • 26 μL complete amino acid mixture • 395 μL water
• 70 μL rabbit reticulocyte lysate • 2 μL complete amino acid mixture • 28 μL water

Setting [2] is: S. aureus, CAMHB supplemented with sodium bicarbonate 25 mM.
Setting [3] is: E. coli, CAMHB supplemented with sodium bicarbonate 25 mM.
Where [4] appears, read: P. aeruginosa, CAMHB supplemented with sodium bicarbonate 25 mM.
[5] abbreviates: A. baumannii, CAMHB supplemented with sodium bicarbonate 25 mM.
The mark [6] stands for this setting: E. faecalis, CAMHB supplemented with sodium bicarbonate 25 mM.

On to `CC(C)(N)C(=O)N1CCN(C(=O)Nc2ccn(C3CCC(CN[C@H]4CC[C@H](N)CC4)CC3)c(=O)n2)CC1` (mixture of isomers) [Compound 11, 4-(2-Amino-2-methylpropanoyl)-N-(1-(4-(((trans-4-aminocyclohexyl)amino)methyl)cyclohexyl)-2-oxo-1,2-dihydropyrimidin-4-yl)piperazine-1-carboxamide hydrochloride salt], for which the MIC was less than 8 µg/mL in the assay with S. aureus (Sa); less than 8 µg/mL in the assay with E. coli (Ec); more than 32 µg/mL with P. aeruginosa (Pa); more than 32 µg/mL with A. baumannii (Ab); less than 8 µg/mL with E. faecalis (Ef). Moreover, the results for the half-maximal inhibitory concentration (IC50) (in the assay with E. coli S30 extract; in assay [1]) were less than 500 nM and not below 1000 nM, respectively.

As for `CN(CC1CC=C(n2ccc(NC(=O)N3CCN(C(=O)C(C)(C)N)CC3)nc2=O)CC1)[C@H]1CC[C@H](N)CC1` (single isomer, unassigned) [Compound 32, trans-4-(2-Amino-2-methylpropanoyl)-N-(1-(4-(((4-aminocyclohexyl)(methyl)amino)methyl)cyclohex-1-en-1-yl)-2-oxo-1,2-dihydropyrimidin-4-yl)piperazine-1-carboxamide hydrochloride salt], the MIC with S. aureus (Sa) is less than 8 µg/mL; in the assay with E. coli (Ec), less than 8 µg/mL; in the assay with P. aeruginosa (Pa), more than 32 µg/mL; with A. baumannii (Ab), more than 32 µg/mL; with E. faecalis (Ef), 8 to 32 µg/mL. The results for the half-inhibitory concentration (IC50) (in the assay with E. coli S30 extract; in assay [1]) were less than 500 nM and not below 1000 nM, respectively.

With `CC(C)(N)C(=O)N1CCN(C(=O)Nc2ccn(C3=CCC(CN4C[C@@H]5[C@@H](N)[C@@H]5C4)CC3)c(=O)n2)CC1` (single isomer, unassigned) [Compound 33, 4-(2-Amino-2-methylpropanoyl)-N-(1-(4-(((exo)-6-amino-3-azabicyclo[3.1.0]hexan-3-yl)methyl)cyclohex-1-en-1-yl)-2-oxo-1,2-dihydropyrimidin-4-yl)piperazine-1-carboxamide hydrochloride salt], the MIC with S. aureus (Sa) (setting [2]) is less than 8 µg/mL; in the assay with E. coli (Ec) (setting [3]), less than 8 µg/mL; in the assay with P. aeruginosa (Pa) (setting [4]) it was more than 32 µg/mL; with A. baumannii (Ab) (setting [5]), 8 to 32 µg/mL; with E. faecalis (Ef) (setting [6]) it was less than 8 µg/mL. The IC50 with E. coli S30 extract is less than 500 nM; in assay [1] it was not below 1000 nM.

Regarding `CC(C)(N)C(=O)N1CCN(C(=O)Nc2ccn(C3=CCC(CN4CCC5(CC4)CC(N)C5)CC3)c(=O)n2)CC1` (single isomer, unassigned) [Compound 36], the minimum inhibitory concentration (MIC) in the assay with S. aureus (Sa) (setting [2]) was less than 8 µg/mL; in the assay on E. coli (Ec) (setting [3]) it was less than 8 µg/mL; with P. aeruginosa (Pa) (setting [4]) it was 8 to 32 µg/mL; in the assay on A. baumannii (Ab) (setting [5]), 8 to 32 µg/mL; in the assay on E. faecalis (Ef) (setting [6]), less than 8 µg/mL. Further, the half-inhibitory concentration (IC50) in the assay with E. coli S30 extract is less than 500 nM; in assay [1], not below 1000 nM.

On to `CC1(N)CCN(CC2CC=C(n3ccc(NC(=O)N4CCN(C(=O)C(C)(C)N)CC4)nc3=O)CC2)CC1` (single isomer, unassigned) [Compound 37, 4-(2-Amino-2-methylpropanoyl)-N-(1-(4-((4-amino-4-methylpiperidin-1-yl)methyl)cyclohex-1-en-1-yl)-2-oxo-1,2-dihydropyrimidin-4-yl)piperazine-1-carboxamide hydrochloride salt], for which the MIC in the assay on S. aureus (Sa) is less than 8 µg/mL; with E. coli (Ec), less than 8 µg/mL; in the assay on P. aeruginosa (Pa) it was more than 32 µg/mL; in the assay on A. baumannii (Ab) it was more than 32 µg/mL; in the assay with E. faecalis (Ef), less than 8 µg/mL. Moreover, the IC50 in the assay with E. coli S30 extract is less than 500 nM; in assay [1], not below 1000 nM.

In the case of `CC(C)(N)C(=O)N1CCN(C(=O)Nc2ccn(C3=CCC(CN[C@H]4CC[C@H](N)CC4)CC3)c(=O)n2)CC1` (single isomer, unassigned) [Compound 39, trans-4-(2-Amino-2-methylpropanoyl)-N-(1-(4-(((4-aminocyclohexyl)amino)methyl)cyclohex-1-en-1-yl)-2-oxo-1,2-dihydropyrimidin-4-yl)piperazine-1-carboxamide hydrochloride salt], the MIC with S. aureus (Sa) was less than 8 µg/mL; in the assay on E. coli (Ec) it was less than 8 µg/mL; in the assay on P. aeruginosa (Pa), more than 32 µg/mL; with A. baumannii (Ab), more than 32 µg/mL; in the assay on E. faecalis (Ef), less than 8 µg/mL. In addition, the IC50 in the assay on E. coli S30 extract is less than 500 nM; in assay [1] it was not below 1000 nM.

Turning to `CCN(CC1CC=C(n2ccc(NC(=O)N3CCN(C(=O)C(C)(C)N)CC3)nc2=O)CC1)[C@H]1CC[C@H](N)CC1` (stereo partly drawn) [Compound 31, trans-4-(2-Amino-2-methylpropanoyl)-N-(1-(4-(((4-aminocyclohexyl)(ethyl)amino)methyl)cyclohex-1-en-1-yl)-2-oxo-1,2-dihydropyrimidin-4-yl)piperazine-1-carboxamide hydrochloride salt], the minimal inhibitory concentration (MIC) is less than 8 µg/mL with S. aureus (Sa), less than 8 µg/mL in the assay with E. coli (Ec), more than 32 µg/mL in the assay on P. aeruginosa (Pa) and less than 8 µg/mL in the assay on E. faecalis (Ef). Moreover, the half-inhibitory concentration (IC50) was less than 500 nM in the assay with E. coli S30 extract and not below 1000 nM in assay [1].

For `CC(C)(N)C(=O)N1CCN(C(=O)Nc2ccn([C@H]3CC[C@H](CN(CCF)[C@H]4CC[C@H](N)CC4)CC3)c(=O)n2)CC1` [Compound 49, trans-trans-4-(2-amino-2-methylpropanoyl)-N-(1-(4-(((4-aminocyclohexyl)(2-fluoroethyl)amino)methyl)cyclohexyl)-2-oxo-1,2-dihydropyrimidin-4-yl)piperazine-1-carboxamide hydrochloride salt], the MIC is less than 8 µg/mL in the assay with S. aureus (Sa), less than 8 µg/mL with E. coli (Ec), more than 32 µg/mL with A. baumannii (Ab) and 8 to 32 µg/mL in the assay with E. faecalis (Ef). The IC50 in the assay with E. coli S30 extract was less than 500 nM; in assay [1], not below 1000 nM.

A word on the MIC: it is the smallest concentration in the dilution series that meets the test's criterion for growth inhibition. The IC50 is the concentration needed to halve the response being measured.
